For seven molecules, Remaining amount and IC50 results are on record in patent US12668573B2, “Linker, antibody-drug conjugate including same and use thereof” (Zhejiang Yangshengtang Institute of Natural Medication Co., …, priority 2018, dated 2026).

A short description of series [1]: Stability of small molecule-linker conjugates in presence of excess free sulfhydryl (Cys), RP-HPLC. It is filed as physicochemical. To be noted: PBS with Cys 0.41 mg/mL, pH=7.4, 37° C., 7 days; peak area at t=0 defined as 100%. The protocol:
In this example, the small molecule conjugates containing methyl maleate linker (Conjugate-1, Conjugate-2 and Conjugate-3, prepared in Example 9) and small molecule conjugates containing succinimide linker (Conjugate-1′, Conjugate-2′ and Conjugate-3′, prepared in Example 9) were evaluated to determine their stability situations in the presence of excess free sulfhydryl (Cys), in which the monitoring indicators were the changes of the remaining amounts of the small molecule conjugates containing two different linkers in the solution over time. The substances to be tested were each dissolved in DMSO, diluted with 10 times volume of PBS buffer containing cysteine (in which the concentration of Cys was 0.41 mg/mL, pH=7.4) and incubated in a 37° C. incubator; at t=0, another 200 μL of each sample was taken and stored at −80° C. as control. After each solution was incubated for 7 days, samples were taken separately, and RP-HPLC was used to detect the changes of their remaining amounts of substrate over time, in which the peak area of substrate at t=0 was defined as 100%.

The subject of another series is HCC1954. Briefly: In vitro cytotoxicity test (CellTiter Glo, 96 h). It is filed as cell-based. To be noted: HCC1954, HER2-positive breast cancer; ADC DAR about 4. The protocol: (§1) The selected cell lines included antigen HER2-positive breast cancer cell lines BT-474 and HCC1954, antigen HER2-positive ovarian cancer cell line SK-OV-3, antigen HER2-positive gastric cancer cell line NCI-N87, and antigen HER2-weakly positive breast cancer cell line MCF-7, and antigen HER2-negative breast cancer cell line MDA-MB-468 (purchased from ATCC).
(§2) a) Vial was gently shaken in a 37° C. water bath to be thawed; b) after all the contents had been thawed, the vial was taken out from the water bath, and disinfected by immersion in or spraying with 70% ethanol; c) the contents of the vial was transferred into a centrifuge tube containing 9 mL of complete medium (DMEM medium was used for cell lines BT-474 and MCF-7; RPMI1640 medium was used for cell lines NCI-N87, HCC1954 and MDA-MB-468; and Mccoy's 5A medium was used for cell line SK-OV-3; the media described below were the same as here), and centrifuged at about 200 xg for 5 minutes; d) the cell pellet was re-suspended in a medium and distributed into a 75 cm^2 culture flask; e) the resulting culture was incubated in a 37° C., 5% CO2 incubator.
(§3) a) The cells were passaged three times a week at a ratio of 1:4 in a medium containing 10% FBS (heat inactivated) and 1% penicillin/streptomycin solution; b) for the passaged cells, the adherent cells were firstly washed with 0.05% trypsin/EDTA solution (3 mL), then trypsin/EDTA (3 mL) was added and vortexed to coat the cells evenly. The resulting culture was incubated at 37° C. until the cells were detached (observed with microscope to verify that the cells were detached). An equal volume of cell culture medium was added to inactivate trypsin, the detached cells were collected, and centrifuged at 200×g for 5 minutes and then re-suspended in fresh culture medium.
In general terms: ATP-based viability assays read luminescence as a measure of living cells.

For another series, the system named is MDA-MB-468. The experiment in a line: In vitro cytotoxicity test (CellTiter Glo, 96 h). The following applies: MDA-MB-468, HER2-negative breast cancer; ADC DAR about 4. The format is cell-based. The protocol:
as §1, §2, §3

The subject of another series is MCF-7. The experiment in a line: In vitro cytotoxicity test (CellTiter Glo, 96 h). The following applies: MCF-7, HER2-weakly positive breast cancer; ADC DAR about 4. The format is cell-based. The protocol: as §1, §2, §3
The test system of a further series is NCI-N87. Briefly: In vitro cytotoxicity test (CellTiter Glo, 96 h). The format is cell-based. The following applies: NCI-N87, HER2-positive gastric cancer; ADC DAR about 4. How it is done: as §1, §2, §3
Another series deals with SK-OV-3. The experiment in a line: In vitro cytotoxicity test (CellTiter Glo, 96 h). It is filed as cell-based. To be noted: Sk-OV-3, HER2-positive ovarian cancer; ADC DAR about 4. The protocol:
as §1, §2, §3

A further series has as its system BT-474. The experiment in a line: In vitro cytotoxicity test (CellTiter Glo, 96 h). The format is cell-based, human. To be noted: BT-474, HER2-positive breast cancer; ADC DAR about 4. How it is done:
as §1
as §2, with “incubator. […]” for “incubator.”

Square brackets hold non-standard residues; d marks the D form. Peptide text beside a SMILES is read from it. * marks the point of attachment. Dolaproine = CO[C@@H]([C@@H]1CCCN1)[C@@H](C)C(=O)O; Dil = CC[C@H](C)[C@H](NC)[C@@H](CC(=O)O)OC; X1 = C[C@@H](N*)[C@@H](O)c1ccccc1; NMeV = CN[C@H](C(=O)O)C(C)C

Regarding `COC(=O)CC(SCCO)C(=O)NCCCCCC(=O)Nc1ccccc1` (stereo not drawn) [Conjugate-2], in series [1], the Remaining amount was found to be 98%.

Usually IC50 stands for the concentration at which inhibition is half-maximal. With `CC[C@H](C)[C@@H]([C@@H](CC(=O)N1CCC[C@H]1[C@H](OC)[C@@H](C)C(=O)N[C@H](C)[C@@H](O)c1ccccc1)OC)N(C)C(=O)[C@@H](NC(=O)[C@@H](NC)C(C)C)C(C)C` [MMAE, Monomethyl-auristatin E] (H-[NMeV]V[Dil][Dolaproine]-X1), the IC50 in the series on HCC1954 is 0.116 nM; with MDA-MB-468, 0.0669 nM; in the series with MCF-7 it was 0.223 nM; in the series with NCI-N87, 0.161 nM; with SK-OV-3, 0.644 nM; with BT-474, 0.299 nM.

Turning to `CC(=O)N[C@@H](CSC1CC(=O)N(CCCCCC(=O)Nc2ccccc2)C1=O)C(=O)NCc1ccccc1` (stereo partly drawn) [Conjugate-1′], in series [1], the Remaining amount is 53%.

Take `O=C(CCCCCN1C(=O)CC(SCCO)C1=O)Nc1ccccc1` (stereo not drawn) [Conjugate-2′]: the Remaining amount in series [1] worked out at 61%.

For the molecule `COC(=O)CC(SC[C@H](NC(C)=O)C(=O)NCc1ccccc1)C(=O)NCCCCCC(=O)Nc1ccccc1` (stereo partly drawn) [Conjugate-1], the Remaining amount in series [1] amounted to 96%.

Take `COC(=O)CC(SCc1ccccc1)C(=O)NCCCCCC(=O)Nc1ccccc1` (stereo not drawn) [Conjugate-3]: the Remaining amount in series [1] is listed as 93%.

In the case of `O=C(CCCCCN1C(=O)CC(SCc2ccccc2)C1=O)Nc1ccccc1` (stereo not drawn) [Conjugate-3′], the Remaining amount in series [1] is reported as 49%.
